# Assay results from US20170057995A1, “USE OF AROMATIC-CATIONIC PEPTIDES TO TREAT CHOLESTEROL-INDUCED MITOCHONDRIAL DYSFUNCTION” (CORNELL UNIVERSITY, priority 2013, published 2017).
# Where no end group is shown, it is not given here. [ ]: non-standard residue; d: D form.
# Assays:
# [1] = system: cytochrome c; assay: Cytochrome c peroxidase activity (Amplex Red Peroxidase Kit); type: biochemical; details: for reduction in cytochrome c peroxidase activity compared to cytochrome c exposed to chol-POPC liposomes only: 300 μM chol-POPC liposomes, cytochrome c incubated with peptide first, peptide concentration not stated (FIG. 2 range 0-300 μM); for effect on cholesterol-induced cytochrome c peroxidase activity (FIG. 2): peptide 0 μM to 300 μM, 300 μM cholesterol
# Description: Cytochrome c peroxidase activity was measured using the Amplex Red Peroxidase Kit. Amplex Red reagent reacts with H2O2 in a 1:1 ratio in the presence of a peroxidase in order to create a highly fluorescent compound called resorufin, which has an excitation at 570 nm and an emission at 585 nm. 2 μM cytochrome c was incubated in 20 mM Hepes buffer pH 7.4 with varying concentrations of free cholesterol dissolved in ethanol or cholesterol-POPC liposomes (chol-POPC). 10 μM of H2O2 and 50 μM of Amplex Red reagent were subsequently added. The fluorescence was then measured using time course data collected from a Spectra Max 190 microplate spectrofluorometer (Molecular Devices, Sunnyvale, Calif.). Liposomes were prepared as previously described in Melzak et al., Langmuir, 24: 9172-9180 (2008). Chol-POPC liposomes were prepared in a 1:1 molar ratio. Stock solutions were mixed and then dried under nitrogen from 30 minutes. After resuspension in 20 mM Hepes buffer pH 7.4, the liposomes were extruded 25 times through a 50 nm pore membrane (Avestin).
# [2] = system: cytochrome c; assay: Circular dichroism spectroscopy of cytochrome c (Soret region); details: 100 μM peptide; 40 μM chol-POPC liposomes; 10 mM cytochrome c
# Description: The circular dichroism (CD) spectra was collected using an AVIA 62 DS spectrophotometer. The CD spectra was analyzed between 375-450 nm in order to monitor the Soret region using a CD 10-mm path-length for cells containing 20 mM Hepes (pH 7.4) and […] cytochrome c in the presence or absence of 40 μM chol-POPC liposomes and/or 100 μM SS-31.
# Circular dichroism (Olis DSM20 spectropolarimeter) was carried out to analyze Soret region (375-450 nm), a probe for the attachment of the Met80 residue to the heme iron. The decreased intensity of the 416 nm Cotton effect (negative Cotton peak) is indicative of a perturbed heme pocket region, as the 416 nm dichroic band serves as a readout for the Met80-Fe(III) coordination in native cytochrome c. (Santucci et al., 1997). […] The CD spectra data comports with the findings of Examples 1 and 3 because the disruption of the Fe-Met80 coordination increases the exposure of the heme Fe to H2O2, thereby causing cytochrome c to switch from an electron carrier to a peroxidase.
# [3] = system: cytochrome c; assay: Cytochrome c reduction by ascorbate (absorbance at 550 nm); type: biochemical; details: 100 μM chol-POPC liposomes, 20 μM cytochrome c, 50 μM vitamin C; peptide up to 300 μM
# Description: Liposomes were prepared as previously described in Melzak et al., Langmuir, 24: 9172-9180 (2008). Chol-POPC liposomes were prepared in a 1:1 molar ratio. Stock solutions were mixed and then dried under nitrogen from 30 minutes. After resuspension in 20 mM Hepes buffer pH 7.4, the liposomes were extruded 25 times through a 50 nm pore membrane (Avestin). 20 μM cytochrome c in Hepes buffer pH 7.4 was contacted with varying concentrations of chol-POPC liposomes and peptide. 50 μM ascorbate (vitamin C) was added after five minutes in order to promote the reduction the cytochrome c protein. The absorbance at 550 nm was then recorded in order to obtain the rate of the reaction after treatment with varying concentrations of peptide and cholesterol using a spectrophotometer (Spectramax Gemini XPS, Molecular Devices, Sunnyvale, Calif.). (See Basova et al., 2007).
# [4] = system: cytochrome c; assay: Absorbance spectrum of cytochrome c (Soret band, 350-450 nm); details: 100 μM peptide
# Description: The effects of cholesterol and aromatic-cationic peptides on the structure of cytochrome c were analyzed using absorbance spectra (Pinherio et al., 1997). Wild-type cytochrome c typically has a peak at around 410 nm (which represents the Soret region) that may be affected by protein damage. Absorbance between 350-450 nm was analyzed using a Spectramax Gemini XPS spectrophotometer (Molecular Devices, Sunnyvale, Calif.).
# Cholesterol-induced structural alterations of cytochrome c were also analyzed using absorption spectroscopy. The absorbance spectrum between 350 and 450 nm was analyzed so as to monitor changes to the Soret band. A Soret band with a maximum intensity at 410 nm is indicative of the presence of both axial ligands (His18 and Met80 ligated to heme iron). (Pinherio et al., 1997).
compound,measurement,setting,value
CC(C)CCC[C@@H](C)[C@H]1CC[C@H]2[C@@H]3CC=C4C[C@@H](O)CC[C@]4(C)[C@H]3CC[C@]12C [cholesterol],increase in cytochrome c peroxidase activity,"[1]; 300 μM, 2 μM cytochrome c, 10 μM H2O2, 50 μM Amplex Red",40 fold
"D-Arg-2′,6′-Dmt-Lys-Phe-NH2 [SS-31]",reduction in cytochrome c peroxidase activity compared to cytochrome c exposed to chol-POPC liposomes only,[1],75%
same,effect on cholesterol-induced cytochrome c peroxidase activity (FIG. 2),[1]; 2 μM cytochrome c,inhibit cholesterol-induced cytochrome c peroxidase activity in a dose-dependent manner
same,negative Cotton peak of cytochrome c incubated with chol-POPC liposomes (CD spectra),[2],restores the negative Cotton peak
same,effect on cholesterol-induced impairment of cytochrome c reduction (FIG. 3B),[3],reversed
same,intensity of the 410 nm absorbance peak of cytochrome c incubated with chol-POPC liposomes,[4],increases the intensity of the 410 nm peak
F[dR]FK-NH2 [SS-20],reduction in cytochrome c peroxidase activity compared to cytochrome c exposed to chol-POPC liposomes only,[1],77%
same,effect on cholesterol-induced cytochrome c peroxidase activity (FIG. 2),[1]; 2 μM cytochrome c,inhibit cholesterol-induced cytochrome c peroxidase activity in a dose-dependent manner
same,effect on cholesterol-induced impairment of cytochrome c reduction (FIG. 3B),[3],reversed
